pIC50: −log10 of the molar value. Where “and” joins values, the source holds several entries; their conditions need not be identical. Identical values can stand only once. Like-named read-outs stand apart in the source and are kept apart here.
What was measured:
[1] = test system: PC9 cells (EGFR d746-750 single mutant); assay: PC-9 growth inhibition assay (cell proliferation), Method A; format: cell-based, human; details: Homo sapiens, PC-9; cellular proliferation, PC9 cells, 72 h, CellTiter-Glo (Table 1); read-out: PC9 IC50 (nM) SM
Protocol: (§1) Cell Proliferation Assays—Method A
(§2) The final concentration was 4,000 cells/well. Add medium only as low control.
(§3) Day-2: Test compounds were dissolved in DMSO at 0.2 mM (200×).
(§4) Day-5: After 72 hours incubation, remove the plates from incubator and equilibrate at room temperature for 15 minutes. Incubate the CellTiter Glo reagents (Promega, G9243) at 37° C. before the experiment. The buffer was equilibrated to room temperature and used to dissolve the substrate. To determine the cell viability, add 30 μL of CellTiter-Glo reagent into each well to be detected. Then shake the plates at room temperature for 10 min and followed by plate read on Envision (PerkinElmer).
(§5) For estimation of IC50, the luminescence readout are transformed to % Inhibition by applying the following equation: The IC50 was then
(§6) [formula] calculated by fitting in XLFit to a four parameters logistic curve.
PC-9 Growth Inhibition Assay (Cell Proliferation)
The inhibition assay for PC-9 cells was processed in the same manner as described for the H1975 cells.

[2] = test system: NCI-H1975 cells (EGFR L858R/T790 double mutant); assay: H1975 inhibition assay (cell proliferation), Method A; format: cell-based; details: Homo sapiens; cellular proliferation, NCI-H1975 cells, 72 h, CellTiter-Glo (Table 1); read-out: NCI-H1975 IC50 (nM) DM
Protocol: as §1
H1975 Inhibition Assay (Cell Proliferation)
as §2, §3, §4, §5, §6

[3] = test system: LoVo cells (unmutated EGFR wild type); assay: LoVo growth inhibition assay (cell proliferation), Method A; format: cell-based; details: Homo sapiens, cellular proliferation, 72 h, CellTiter-Glo (Table 1), read-out: LoVo IC50 (nM) WT
Protocol: as §1
LoVo Growth Inhibition Assay (Cell Proliferation)
The rest of the procedure was carried out in the same manner as described for the H1975 cells.

[4] = test system: p-EGFR in PC9 cells (Exon 19 deletion EGFR); assay: Exon19 deletion EGFR (activating single mutant) PC-9 cellular autophosphorylation assay; format: cell-based, human; details: 2 h treatment, ELISA
Protocol: Cellular EGFR Autophosphorylation Assays.
The human lung cell line PC9 (Exon 19 deletion EGFR) is obtained from the American type Culture Collection. […] Cells are grown in a humidified incubator at 37° C. with 5% CO2, Assays to measure cellular phosphorylation of endogenous p-EGFR in cell Iysates are carried out according to the protocol described in the R&D Systems DuoSet IC Human Phospho-EGF R ELISA (R&D Systems catalogue number #DYCI095). 40 μL of cells are seeded (10000 cells/well) in growth medium in Corning black, clear-bottomed 384-well plates and incubated at 37° C., with 5%0/CO2 overnight. […] Plates are incubated for a further 2 h, then following aspiration of medium, 40 μL×lysis buffer is added to each well. Greiner black high bind 384 well plates are coated with capture antibody and then blocked with 3% BSA. Following removal of block, 15 μL of lysate are transferred to the Greiner black high bind 384 well plates and incubated for 2 hours. Following aspiration and washing of the plates with PBS, 20 μL of detection antibody are added and incubated for 2 hours. […] The data obtained with each compound are exported into a suitable software package (such as Origin) to perform curve fitting analysis.

[5] = biological target: T1, IGF-1R (Homo sapiens, UniProt P08069); assay: IGF-1R inhibition assay (Caliper EZ Reader); format: biochemical; details: enzyme assay
T1 construct: purchased CARNA BIOSCIENCE 08-141
Protocol: (§7) Test compound was dissolved in DMSO at 30 mM. […] 20 nL of these compounds DMSO dilutes were dispensed into a new 384-well assay plate by Echo 550. […] 15 uL of kinase assay buffer containing IGF-1R protein and substrate was transferred to assay plate and incubate at RT for 30 minutes. Kinase assay buffer supplemented with substrate peptides was employed as low control to monitor the background. 40 μM ATP was prepared in kinase assay buffer containing and 5 μL of ATP solution was added to each well to start the reaction. The assay plate was incubated at 25° C. for 180 minutes and the reaction was stopped by adding 40 μL of 0.5 M EDTA.
Phosphorylated fluorescent-tagged peptides were differentiated from non-phosphorylated peptides by separating using Caliper EZ Reader II and the detection was directly converted to conversion ratio.

[6] = biological target: T2, INSR (Homo sapiens, UniProt P06213); assay: INSR inhibition assay (Caliper EZ Reader); format: biochemical; details: enzyme assay
T2 construct: purchased CARNA BIOSCIENCE 08-142
Protocol: as §7, with “INSR” for “IGF-1R”, “LM” for “μM”
The result is analyzed in the same manner of […].

[7] = test system: p-EGFR in H1975 cells (L858R/T790M double mutant EGFR)
[8] = biological target: EGFR_d746-750 (Homo sapiens, UniProt P00533, DEL746-750); assay: Enzyme assay, IC50 for single mutant EGFR_d746-750 (Caliper); format: biochemical; details: enzyme phosphorylation assay
Sequence of EGFR_d746-750 (P00533 with tags, fused parts or gaps DEL746-750): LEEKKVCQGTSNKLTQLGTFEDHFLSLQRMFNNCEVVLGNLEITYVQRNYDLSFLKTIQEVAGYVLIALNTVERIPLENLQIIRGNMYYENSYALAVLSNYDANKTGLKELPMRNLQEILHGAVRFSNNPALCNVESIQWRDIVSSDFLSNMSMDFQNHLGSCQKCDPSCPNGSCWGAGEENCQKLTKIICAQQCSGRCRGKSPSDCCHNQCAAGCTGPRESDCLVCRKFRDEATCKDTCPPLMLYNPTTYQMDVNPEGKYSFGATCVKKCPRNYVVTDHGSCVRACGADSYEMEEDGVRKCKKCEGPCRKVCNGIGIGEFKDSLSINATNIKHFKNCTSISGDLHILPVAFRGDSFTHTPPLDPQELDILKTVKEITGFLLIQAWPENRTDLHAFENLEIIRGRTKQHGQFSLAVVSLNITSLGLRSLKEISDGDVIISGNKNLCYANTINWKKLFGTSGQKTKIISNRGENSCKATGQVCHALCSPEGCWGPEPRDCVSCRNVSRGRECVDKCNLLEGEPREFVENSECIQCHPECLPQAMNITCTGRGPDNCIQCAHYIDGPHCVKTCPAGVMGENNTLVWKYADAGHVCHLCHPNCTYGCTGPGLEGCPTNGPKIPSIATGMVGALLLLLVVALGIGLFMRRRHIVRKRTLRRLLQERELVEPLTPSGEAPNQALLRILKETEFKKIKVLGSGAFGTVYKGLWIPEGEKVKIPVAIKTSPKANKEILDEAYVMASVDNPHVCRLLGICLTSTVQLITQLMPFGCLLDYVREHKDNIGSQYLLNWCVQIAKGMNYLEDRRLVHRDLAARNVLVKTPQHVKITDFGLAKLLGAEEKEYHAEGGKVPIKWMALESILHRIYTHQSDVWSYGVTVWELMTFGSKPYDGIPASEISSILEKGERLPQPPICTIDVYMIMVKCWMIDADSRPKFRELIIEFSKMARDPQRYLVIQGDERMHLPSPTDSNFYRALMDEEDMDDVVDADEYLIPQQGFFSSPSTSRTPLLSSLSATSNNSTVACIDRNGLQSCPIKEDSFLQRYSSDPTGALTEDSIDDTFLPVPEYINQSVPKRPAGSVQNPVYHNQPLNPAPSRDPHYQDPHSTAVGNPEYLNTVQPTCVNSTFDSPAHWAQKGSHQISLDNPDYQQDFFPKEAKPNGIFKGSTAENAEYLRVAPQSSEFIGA
Protocol: (§8) Using the same technique as described in the previous paragraph, various mutated forms of the epidermal growth factor receptor may be isolated from appropriate cell lines which contain them. For example, the EGFR de1746-750 mutant protein may be extracted from PC-9 cells, and the L858R/T790M double mutant EGFR protein may be isolated from H1975 cells.
Determination of IC50 Values for Single Mutant EGFR_d746-750
Dilute all compounds to 500 μM stock solutions in 100% DMSO and make a serial of 4-fold dilution for 10 doses. “Max” and “Min” control contain 100% DMSO. “Max” stands for […], “Min” stands for low control without compounds. Transfer 10 μl of compounds to 90 μl of 1× kinase base buffer to make intermediate dilution. […] Incubate at RT for 1 hr and 25 μl stop buffer to end up reaction. Collect conversion data from Caliper and conversion data from Caliper program. Fit the data in XLfit to obtain IC50 values.

[9] = biological target: EGFR_T790M/L858R (Homo sapiens, UniProt P00533, L858R/T790M); assay: Enzyme assay, IC50 for double-mutant EGFR (EGFR_T790M/L858R) (Caliper); format: biochemical; details: enzyme phosphorylation assay; read-out: EGFR_L858R/T790 IC50
Sequence of EGFR_T790M/L858R (P00533 25-1210 T790M/L858R): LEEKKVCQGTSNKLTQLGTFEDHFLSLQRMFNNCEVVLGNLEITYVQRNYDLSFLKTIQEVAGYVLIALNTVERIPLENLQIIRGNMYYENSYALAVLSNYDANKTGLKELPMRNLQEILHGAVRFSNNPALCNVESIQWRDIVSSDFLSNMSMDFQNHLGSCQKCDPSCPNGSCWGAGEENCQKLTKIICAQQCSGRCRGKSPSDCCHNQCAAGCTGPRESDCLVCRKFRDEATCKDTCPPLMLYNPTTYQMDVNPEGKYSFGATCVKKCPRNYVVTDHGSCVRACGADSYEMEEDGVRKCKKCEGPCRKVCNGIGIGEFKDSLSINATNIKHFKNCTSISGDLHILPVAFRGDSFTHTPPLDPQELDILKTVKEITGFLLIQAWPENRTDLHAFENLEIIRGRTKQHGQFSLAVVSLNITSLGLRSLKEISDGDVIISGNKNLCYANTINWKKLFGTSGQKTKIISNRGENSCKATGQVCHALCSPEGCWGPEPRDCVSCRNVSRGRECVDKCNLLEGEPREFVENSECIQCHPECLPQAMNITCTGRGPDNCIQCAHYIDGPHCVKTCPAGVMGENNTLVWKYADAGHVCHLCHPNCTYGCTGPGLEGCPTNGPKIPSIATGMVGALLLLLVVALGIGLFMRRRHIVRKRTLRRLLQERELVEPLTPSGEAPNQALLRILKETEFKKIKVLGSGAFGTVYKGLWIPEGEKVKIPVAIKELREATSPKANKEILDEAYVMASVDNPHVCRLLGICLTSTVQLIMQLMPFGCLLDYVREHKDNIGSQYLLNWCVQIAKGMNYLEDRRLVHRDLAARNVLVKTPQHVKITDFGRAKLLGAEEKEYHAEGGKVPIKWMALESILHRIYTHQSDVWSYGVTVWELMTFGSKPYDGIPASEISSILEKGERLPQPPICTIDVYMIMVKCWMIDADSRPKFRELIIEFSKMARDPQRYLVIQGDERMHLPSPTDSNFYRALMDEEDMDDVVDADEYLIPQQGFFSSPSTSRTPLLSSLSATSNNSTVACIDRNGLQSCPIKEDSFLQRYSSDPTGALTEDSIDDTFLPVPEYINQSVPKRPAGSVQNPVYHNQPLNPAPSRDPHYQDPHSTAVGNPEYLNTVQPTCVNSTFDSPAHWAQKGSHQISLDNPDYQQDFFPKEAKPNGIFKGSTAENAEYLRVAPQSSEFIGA
Protocol: as §8
Determination of IC50 Values for Double-Mutant EGFR (EGFR_T790M/L858R)
Dilute all compounds to 500 μM stock solutions in 100% DMSO and make a serial of 4-fold dilution for 10 does. “Max” and “Min” control contain 100% DMSO. “Max” stands for […], “Min” stands for low control without compounds. Transfer 10 μl of compounds to 90 μl of 1× kinase base buffer to make intermediate dilution. […] Incubate at RT for 1 hr and 25 μl stop buffer to end up reaction. Collect conversion data from Caliper and conversion data from Caliper program. Fit the data in XLfit to obtain IC50 values.

[10] = biological target: T3, Wt EGFR (Homo sapiens, UniProt P00533); assay: Enzyme assay, IC50 for wt EGFR (Caliper); format: biochemical; details: enzyme phosphorylation assay; read-out: EGFR_WT IC50
T3 construct: isolated from A431 human epidermoid carcinoma cells which overexpress EGF receptor; endogenous in cells; host or cells: A431 human epidermoid carcinoma cells (receptor purified on wheat germ agglutinin sepharose)
T3 sequence (P00533 25-1210): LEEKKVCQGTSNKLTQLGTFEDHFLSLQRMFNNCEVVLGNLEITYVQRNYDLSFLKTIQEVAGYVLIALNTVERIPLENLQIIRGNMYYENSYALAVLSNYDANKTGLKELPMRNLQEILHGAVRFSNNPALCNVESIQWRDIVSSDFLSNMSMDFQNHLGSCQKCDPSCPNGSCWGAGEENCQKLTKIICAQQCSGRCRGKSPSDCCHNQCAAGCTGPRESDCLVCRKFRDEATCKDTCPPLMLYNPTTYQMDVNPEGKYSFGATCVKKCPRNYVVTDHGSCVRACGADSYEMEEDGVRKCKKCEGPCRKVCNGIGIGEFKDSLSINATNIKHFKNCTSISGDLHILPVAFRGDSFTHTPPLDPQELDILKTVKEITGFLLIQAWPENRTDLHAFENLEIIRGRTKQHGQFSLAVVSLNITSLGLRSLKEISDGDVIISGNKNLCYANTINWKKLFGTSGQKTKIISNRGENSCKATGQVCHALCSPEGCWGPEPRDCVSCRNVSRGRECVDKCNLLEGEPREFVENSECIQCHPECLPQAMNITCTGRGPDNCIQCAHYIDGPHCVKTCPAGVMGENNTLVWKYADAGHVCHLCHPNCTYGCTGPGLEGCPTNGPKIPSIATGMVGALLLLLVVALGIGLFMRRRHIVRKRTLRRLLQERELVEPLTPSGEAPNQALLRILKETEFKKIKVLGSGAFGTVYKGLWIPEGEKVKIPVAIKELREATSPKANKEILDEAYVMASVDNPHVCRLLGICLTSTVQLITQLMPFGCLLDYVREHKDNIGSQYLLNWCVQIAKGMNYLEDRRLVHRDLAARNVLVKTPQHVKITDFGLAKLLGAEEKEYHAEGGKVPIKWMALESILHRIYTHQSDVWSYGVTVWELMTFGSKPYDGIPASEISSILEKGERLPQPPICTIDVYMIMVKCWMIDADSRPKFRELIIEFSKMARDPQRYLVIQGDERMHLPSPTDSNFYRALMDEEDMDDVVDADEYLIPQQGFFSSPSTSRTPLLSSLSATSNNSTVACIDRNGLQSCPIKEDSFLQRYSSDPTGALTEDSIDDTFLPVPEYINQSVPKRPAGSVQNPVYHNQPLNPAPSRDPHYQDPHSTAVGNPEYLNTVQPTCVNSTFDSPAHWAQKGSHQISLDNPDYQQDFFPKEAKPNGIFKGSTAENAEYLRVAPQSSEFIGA
Protocol: Purification of Epidermal Growth Factor Receptor Tyrosine Kinase Human EGF receptor tyrosine kinase was isolated from A431 human epidermoid carcinoma cells which overexpress EGF receptor by the following methods. Cells were grown in roller bottles in 50% Delbuco's Modified Eagle and 50% HAM F-12 nutrient media (Gibco) containing 10% fetal calf serum. Approximately 10^9 cells were lysed in two volumes of buffer containing 20 mM 2-(4N-[2-hydroxyethyl]piperazin-1-yl)ethanesulfonic acid (hepes), pH 7.4, 5 mM ethylene glycol bis(2-aminoethyl ether) N,N,N′,N′-tetraacetic acid, 1% Triton X-1OO, 10% glycerol. 0.1 mM sodium orthovanadate, 5 mM sodium fluoride, 4 mM pyrophosphate, 4 mM benzamide, 1 mM dithiothreitol, 80 μg/mL aprotinin, 40 μg/mL leupeptin and 1 mM phenylmethylsulfonyl fluoride. After centrifugation at 25,000×g for 10 minutes, the supernatant was equilibrated for 2 h at […], with 10 mL of wheat germ agglutinin sepharose that was previously equilibrated with 50 mM Hepes, 10% glycerol, 0.1% Triton X-100 and 150 mM NaCl, pH 7.5, (equilibration buffer). Contaminating proteins were washed from the resin with 1M NaCl in equilibration buffer, and the enzyme was eluted with 0.5M N-acetyl-1-D-glucosamine in equilibration buffer, followed by 1 mM urea. The enzyme was eluted with 0.1 mg/ml EGF.
Determination of IC50 Values for Wt EGFR
Dilute all compounds to 500 μM stock solutions in 100% DMSO and make a serial of 4-fold dilution for 10 does. “Max” and “Min” control contain 100% DMSO. “Max” stands for […], “Min” stands for low control without compounds. Transfer 10 μl of compounds to 90 μl of Ix kinase base buffer to make intermediate dilution. Transfer 5 μl of intermediate dilution compounds to the 384-well assay plate, then 10 μl 2.5× enzyme buffer containing (20 nM EGFR, 5 mM DTT, 1× kinase base buffer) were added to assay plate. […] Incubate at RT for 1 hr and 25 μl stop buffer to end up reaction. Collect conversion data from Caliper and conversion data from Caliper program. Fit the data in XLfit to obtain IC50 values.

Row | Compound | IC50 [1] | IC50 [2] | IC50 [3] | pIC50 [8] | pIC50 [9] | pIC50 [10] | pIC50 [4] | pIC50 ([4]; Homo sapiens, PC-9, 2 h) | IC50 [5] | IC50 [6] | IC50 ([7]; Homo sapiens, NCI-H1975, 2 h, read-out: H1975 IC50 (nM), cellular EGFR autophosphorylation, 2 h treatment, ELISA) | pIC50 ([7]; read-out: H1975 IC50, cellular EGFR autophosphorylation, 2 h treatment, ELISA)
2 | C=CC(=O)Nc1cc(Nc2nccc(-n3cc(C)c4ccccc43)n2)c(OC)cc1N(C)CCN(C)C [Example 2, N-(2-(N-(2-(N,N-Dimethylamino)ethyl)-N-methylamino)-4-methoxy-5-(4-(3-methylindol-1-yl)pyrimidin-2-ylamino)phenyl) propenamide] | 12.3 nM | 7.5 nM | 5030 nM | 8.51 | 8.89 | 8.15 |  |  |  |  |  | 
3 | C=CC(=O)Nc1cc(Nc2nccc(-n3cc(Cl)c4ccccc43)n2)c(OC)cc1N(C)CCN(C)C [Example 3, N-(2-(N,N-(2-(N,N-Dimethylamino)ethyl)-N-methylamino)-4-methoxy-5-(4-(3-chloroindol-1-yl)pyrimidin-2-ylamino)phenyl) propenamide] | 23.3 nM | 17.9 nM | 2810 nM | 8.28 | 8.82 | 8.08 |  |  |  |  |  | 
4 | C=CC(=O)Nc1cc(Nc2nccc(-n3cc(C#N)c4ccccc43)n2)c(OC)cc1N(C)CCN(C)C [Example 4, N-(2-(N-(2-(N,N-Dimethylamino)ethyl)-N-methylamino)-4-methoxy-5-(4-(3-cyanoindol-1-yl)pyrimidin-2-ylamino)phenyl) propenamide] | 25.9 nM | 18.8 nM | 2890 nM | 8.59 | 9.08 | 8.42 |  |  |  |  |  | 

Stronger by IC50 [1], values ahead:

Row | IC50 [1] | IC50 [2] | IC50 [3] | pIC50 [8] | pIC50 [9] | pIC50 [10] | Compound | pIC50 [4] | pIC50 ([4]; Homo sapiens, PC-9, 2 h) | IC50 [5] | IC50 [6] | IC50 ([7]; Homo sapiens, NCI-H1975, 2 h, read-out: H1975 IC50 (nM), cellular EGFR autophosphorylation, 2 h treatment, ELISA) | pIC50 ([7]; read-out: H1975 IC50, cellular EGFR autophosphorylation, 2 h treatment, ELISA)
5 | 6.8 nM | 3.1 nM | 3570 nM | 8.62 | 9.15 | 8.39 | C=CC(=O)Nc1cc(Nc2nccc(-n3ccc4ccccc43)n2)c(OC)cc1N(C)CCN(C)C [Example 1] |  |  |  |  |  | 
6 | 3.5 nM | 2.9 nM | 6650 nM | 8.92 | 8.74 | 8.68 | C=CC(=O)Nc1cc(Nc2nccc(-n3cc(CO)c4ccccc43)n2)c(OC)cc1N(C)CCN(C)C [Example 8, N-(2-(N-(2-(N,N-Dimethylamino)ethyl)-N-methylamino)-4-methoxy-5-(4-(3-(hydroxymethyl)indol-1-yl)pyrimidin-2-ylamino)phenyl) propenamide] |  |  |  |  |  | 
7 | 3.4 nM | 2.4 nM | 5860 nM | 8.96 | 8.89 | 8.82 | C=CC(=O)Nc1cc(Nc2nccc(-n3cc(S(C)(=O)=O)c4ccccc43)n2)c(OC)cc1N(C)CCN(C)C [Example 9, N-(2-(N-(2-(N,N-Dimethylamino)ethyl)-N-methylamino)-4-methoxy-5-(4-(3-(methylsulfonyl)indol-1-yl)pyrimidin-2-ylamino)phenyl) propenamide] |  |  |  |  |  | 
8 | 1.6 nM | 1.7 nM | 2630 nM | 9.07 | 8.92 | 8.96 | C=CC(=O)Nc1cc(Nc2nccc(-n3cc(C(N)=O)c4ccccc43)n2)c(OC)cc1N(C)CCN(C)C [Example 7, N-(2-(N-(2-(N,N-Dimethylamino)ethyl)-N-methylamino)-4-methoxy-5-(4-(3-carboxamidoindol-1-yl)pyrimidin-2-ylamino)phenyl) propenamide] |  |  |  |  |  | 
